Data as given in publication PMC6930638, “The Masked Polar Group Incorporation (MPGI) Strategy in Drug Design: Effects of Nitrogen Substitutions on Combretastatin and Isocombretastatin Tubulin Inhibitors” (Molecules, 2019).
Like-named read-outs stand apart in the source and are kept apart here.

How the values were obtained:
[1] = system: HeLa, HT-29 and MCF-7 human tumor cell lines; test: Antiproliferative activity over the three human tumor cell lines (MTT); format: cell-based; settings: range over the cell lines, Table S1, read-out: Cytotoxicity range (range of antiproliferative IC50 values)
Protocol: (§1) The in vitro antiproliferative activity of the synthesized compounds was evaluated by a colorimetric reaction, using the MTT reagent. They were tested against three different human tumor cell lines: HeLa cervix epithelioid carcinoma, HT-29 colon adenocarcinoma, and MCF-7 breast adenocarcinoma. […] Moving the alkylamino substituent from a para to a meta position with respect to the bridge results in potency reduction, except for the phenstatin analogue 1f. However, the introduction of a nitrogen atom to form 2-dimethylaminopyridine derivatives entails a loss of activity, both for phenstatin analogues (1b, 2b), while for isocombretastatins, it only involves a 2–3 times potency decrease (3b). For combretastatins, it implies an improvement in the cytotoxicity values down to tenths of nanomolar (8b). […] On the other hand, the best 2-dimethylaminopyridine was combretastatin 8b. All ammonium salts derivatives were not cytotoxic at micromolar concentrations.
The antiproliferative activity of the compounds against three human tumor cell lines of different origins (i.e., HeLa cervix epithelioid carcinoma, HT-29 colon adenocarcinoma and MCF-7 breast adenocarcinoma) was evaluated by the MTT method. […] This high success rate is the result of a combination of favorable scaffolds and substituents, and it is similar to those of previous reports on related series. […] We have previously observed the same trend for related compounds acting at the colchicine site of tubulin [10, 23]. For this pyridine series, we observed a different potency trend when we compare the 4-amino-3-pyridine and the 3-amino-4-pyridine derivatives. […] This different behavior is probably a reflection of their different shape, combined with the different geometries imposed by different bridges. We have previously shown that the potency ordering isocombretastatins similar to oximes higher than benzophenones could be explained by the higher conjugation of the ketones with the aromatic rings, which imposes a more planar disposition than those required for high affinity colchicine site binding. For the 3-amino-4-pyridine series, more planar structures are required in order to avoid the bumping of the amino substituents with tubulin out the plane of the aromatic ring, an effect which we have previously shown to impact the potency of 3-substituted indolecombretastatins and dimethylaminophenyl phenstatins. This different geometrical disposition of the amino substituents, and the different adaptability of their corresponding pockets in the two series, can also account for the preference of bulkier substituents at position 3, such as the pyrrolidine rather than the smaller dimethylamino. […] The opposite is observed for the 4-dimethylaminophenyl phenstatins 1a and 1b. […] The remarkable levels of solubility achieved for the quaternary ammonium salts came unfortunately at the expenses of biological activity.
The effect of the different compounds on the proliferation of human cell lines was determined by using the MTT (3-[4,5-dimethylthiazol-2-yl]-2,5-diphenyltetrazolium bromide) reagent (MTT Thiazolyl Blue Tetrazolium Bromide, Sigma-Aldrich, St. Louis, MO, USA) dissolved in PBS 5 mg/mL. Cell viability was evaluated seeding 100 µL of cells in exponential growth phase with appropriate cell line concentration (1.5 × 10^4 HeLa and MCF-7 cells/mL and 3 × 10^4 HT-29 cells/mL) in complete medium in 96-well plates at 37 °C and 5% CO2. After 24 h incubation to allow cells to attach to the plates the ligands were added at different concentrations from 10^−5 to 10^−9 M. The effect on the proliferation was evaluated 72 h post-treatment by adding the MTT reagent (10 µL/well) to a final concentration of 0.5 mg/mL and the plate was further incubated for another 3 h. […]

[2] = system: HeLa cervix epithelioid carcinoma; test: MTT cell antiproliferative assay, HeLa; format: cell-based; settings: Homo sapiens, 72 h
Protocol: as §1
(§2) HeLa (human cervical carcinoma) and MCF-7 (human breast carcinoma) cell lines were cultured in Dulbecco’s Modified Eagles Medium (DMEM) supplemented with 2 mM L-glutamine (Lonza-Cambrex, Karlskoga, Sweden), 10% (v/v) heat inactivated fetal bovine serum (HIFBS) (Lonza-Cambrex) and 100 μg/mL streptomycin-100 IU/mL penicillin (Lonza-Cambrex) at 37 °C in humidified 95% air and 5% CO2. HT-29 (human colon carcinoma) cells were cultured at 37 °C in complete RPMI 1640 medium containing 2 mM L-glutamine, 10% (v/v) HIFBS and 100 μg/mL streptomycin-100 IU/mL penicillin in humidified 95% air and 5% CO2 atmosphere.
(§3) The effect of the different compounds on the proliferation of human cell lines was determined by using the MTT (3-[4,5-dimethylthiazol-2-yl]-2,5-diphenyltetrazolium bromide) reagent (MTT Thiazolyl Blue Tetrazolium Bromide, Sigma-Aldrich, St. Louis, MO, USA) dissolved in PBS 5 mg/mL. Cell viability was evaluated seeding 100 µL of cells in exponential growth phase with appropriate cell line concentration (1.5 × 10^4 HeLa and MCF-7 cells/mL and 3 × 10^4 HT-29 cells/mL) in complete medium in 96-well plates at 37 °C and 5% CO2. After 24 h incubation to allow cells to attach to the plates the ligands were added at different concentrations from 10^−5 to 10^−9 M. The effect on the proliferation was evaluated 72 h post-treatment by adding the MTT reagent (10 µL/well) to a final concentration of 0.5 mg/mL and the plate was further incubated for another 3 h. After this period, the supernatant was removed, the MTT violet crystals formed on the bottom of each well were dissolved in DMSO (100 µL/well) and subsequently, the absorbance of the color complex was read at 570 nm using a multi-well plate reader. Compounds were dissolved in dimethyl sulfoxide (DMSO) and the final solvent concentrations never exceeded 0.5% (v/v). The control wells included treated cells with 0.5% (v/v) DMSO and the positive control. Measurements were performed in triplicate, and each experiment was repeated three times. […] Nonlinear curves fitting the experimental data were carried out for each compound.

[3] = system: MCF-7 breast adenocarcinoma; test: MTT cell antiproliferative assay, MCF-7; format: cell-based; settings: Homo sapiens, MCF7, 72 h
Protocol: as §1, §2, §3

[4] = system: Bovine brain microtubule protein (MTP); test: Tubulin polymerization inhibition assay (turbidimetry); format: biochemical; settings: 1.5 mg/mL MTP; IC50 calculated only if more than 50% inhibition at 20 µM; read-out: TPI IC50
Protocol: Bovine brain microtubule protein (MTP) was isolated as previously described. Briefly, it was purified according to the modified Shelanski method by two cycles of temperature-dependent assembly/disassembly.
Tubulin polymerization was monitored using a Helios α spectrophotometer by measuring the increase in turbidity at 450 nm, caused by a shift from 4 °C to 37 °C, which allows the in vitro MTP self-disassembly and assembly respectively. […] Firstly, ligands at 20 µM concentration, were incubated with 1.5 mg/mL MTP at 20 °C for 30 min and subsequently cooled on ice for 10 min. Then, the experiment starts at 4 °C to establish the initial baseline. The assembly process was initiated by shifting of the temperature to 37 °C and the turbidity produced can be measured by an absorbance increase. After reaching a stable plateau, the temperature was switched back to 4 °C to return to the initial absorption values. The difference in amplitude between the stable plateau and the initial baseline of the curves was taken as the degree of tubulin polymerization for each experiment. […] All the measurements were carried out in at least two independent experiments using MTP from different isolation.

Row | IC50 [2] | IC50 [3] | IC50 [4] | Structure (SMILES) | IC50 [1] | IC50 ([1]; heading: Cytotoxicity range) | IC50 ([1]; Homo sapiens)
1 | > 1000 nM | > 1000 nM | > 20000 nM | COc1cc(C=Cc2ccc(N3CCCC3)nc2)cc(OC)c1OC [Compound 8c, 2-(Pyrrolidin-1-yl)-5-(3,4,5-trimethoxystyryl)pyridine] |  |  | > 1000 nM
2 | > 1000 nM | > 1000 nM | > 20000 nM | COc1cc(C=Cc2ccc([N+](C)(C)C)cc2)cc(OC)c1OC [Compound 9a, N,N,N-trimethyl-4-(3,4,5-trimethoxystyryl)benzenaminium iodide] |  |  | > 1000 nM
3 | > 1000 nM | > 1000 nM | > 20000 nM | COc1cc(C(=O)c2ccc([N+](C)(C)C)cc2)cc(OC)c1OC [Compound 5a, N,N,N-Trimethyl-4-(3,4,5-trimethoxybenzoyl)benzenaminiumiodide] |  |  | > 1000 nM
4 | > 1000 nM | > 1000 nM |  | COc1cc(C=Cc2ccc([N+]3(C)CCCC3)cc2)cc(OC)c1OC [Compound 9i, 1-Methyl-1-(4-(3,4,5-trimethoxystyryl)phenyl)pyrrolidin-1-ium iodide] |  |  | 

Further lines, the compound ahead of its results:

Row | Structure (SMILES) | IC50 [2] | IC50 [3] | IC50 [4] | IC50 [1] | IC50 ([1]; heading: Cytotoxicity range) | IC50 ([1]; Homo sapiens)
5 | COc1cc(C(=NO)c2ccnc(N(C)C)c2)cc(OC)c1OC [Compound Z-2g, (2-(Dimethylamino)pyridin-4-yl)(3,4,5-trimethoxyphenyl)methanone oxime] |  |  |  | 407 to 3330 nM |  | 
6 | COc1cc(C(=NO)c2ccc(N3CCCC3)nc2)cc(OC)c1OC [Compound Z-2c, (6-(Pyrrolidin-1-yl)pyridin-3-yl)(3,4,5-trimethoxyphenyl)methanone oxime] |  |  |  |  | > 1000 nM | 
7 | COc1ccc(OC)c(C(=NO)c2ccc(N(C)C)cc2)c1 [Compound Z-2e, (2,5-Dimethoxyphenyl)(4-(dimethylamino)phenyl)methanone oxime] |  |  |  | > 1000 nM |  | 
8 | COc1cc(C(C)c2cccc(N(C)C)c2)cc(OC)c1OC (stereo not drawn) [Compound 4f, N,N-Dimethyl-3-(1-(3,4,5-trimethoxyphenyl)ethyl)aniline] | > 1000 nM | > 1000 nM | > 20000 nM |  |  | > 1000 nM
9 | COc1cc(C(=NO)c2cccc(N(C)C)c2)cc(OC)c1OC [Compound E-2f, (3-(Dimethylamino)phenyl)(3,4,5-trimethoxyphenyl)methanone oxime] |  |  |  |  |  | > 1000 nM
10 | COc1cc(C(=NO)c2ccc(N3CCCC3)nc2)cc(OC)c1OC [Compound 2c, (6-(Pyrrolidin-1-yl)pyridin-3-yl)(3,4,5-trimethoxyphenyl)methanone oxime] | > 1000 nM | > 1000 nM | > 20000 nM |  |  | 
11 | COc1ccc(C(C)c2ccc(N(C)C)cc2)c(OC)c1OC (stereo not drawn) [Compound 4d, N,N-Dimethyl-4-(1-(2,3,4-trimethoxyphenyl)ethyl)aniline] | > 1000 nM | > 1000 nM | > 20000 nM |  |  | > 1000 nM
12 | COc1cc(C(=NO)c2ccc(N3CCCC3)nc2)cc(OC)c1OC [Compound E-2c, (6-(Pyrrolidin-1-yl)pyridin-3-yl)(3,4,5-trimethoxyphenyl)methanone oxime] |  |  |  | > 1000 nM |  | 
13 | COc1ccc(OC)c(C(=NO)c2ccc(N(C)C)cc2)c1 [Compound E-2e, (2,5-Dimethoxyphenyl)(4-(dimethylamino)phenyl)methanone oxime] |  |  |  |  |  | > 1000 nM
14 | COc1ccc(OC)c(C(=NO)c2ccc(N(C)C)cc2)c1 [Compound 2e, (2,5-Dimethoxyphenyl)(4-(dimethylamino)phenyl)methanone oxime] | > 1000 nM | > 1000 nM | > 20000 nM |  |  | 
15 | COc1ccc(OC)c(C(=O)c2ccc(N(C)C)cc2)c1 [Compound 1e, (2,5-dimethoxyphenyl)(4-(dimethylamino)phenyl)methanone] | > 1000 nM | > 1000 nM | > 20000 nM |  |  | > 1000 nM
16 | COc1cc(C(=NO)c2cccc(N(C)C)c2)cc(OC)c1OC [Compound Z-2f, (3-(Dimethylamino)phenyl)(3,4,5-trimethoxyphenyl)methanone oxime] |  |  |  | > 1000 nM |  | 
17 | COc1cc(C(=NO)c2ccnc(N(C)C)c2)cc(OC)c1OC [Compound E-2g, (2-(Dimethylamino)pyridin-4-yl)(3,4,5-trimethoxyphenyl)methanone oxime] |  |  |  |  |  | 407 to 3330 nM
18 | COc1ccc(C(=NO)c2ccc(N(C)C)cc2)c(OC)c1OC [Compound E-2d, (4-(Dimethylamino)phenyl)(2,3,4-trimethoxyphenyl)methanone oxime] |  |  |  |  |  | 277 to 677 nM
19 | C=C(c1ccc(N(C)C)cc1)c1cc(OC)ccc1OC [Compound 3e, 4-(1-(2,5-Dimethoxyphenyl)vinyl)-N,N-dimethylaniline] | > 1000 nM | > 1000 nM | > 20000 nM |  |  | > 1000 nM
20 | COc1ccc(OC)c(C(C)c2ccc(N(C)C)cc2)c1 (stereo not drawn) [Compound 4e, 4-(1-(2,5-Dimethoxyphenyl)ethyl)-N,N-dimethylaniline] | > 1000 nM | > 1000 nM | > 20000 nM |  |  | > 1000 nM
21 | COc1cc(C(=NO)c2ccc([N+](C)(C)C)cc2)cc(OC)c1OC [Compound Z-6a, 4-((Hydroxyimino)(3,4,5-trimethoxyphenyl)methyl)-N,N,N-trimethylbenzenaminium iodide] |  |  |  | > 1000 nM |  | 
22 | COc1cc(C(=NO)c2ccc([N+](C)(C)C)cc2)cc(OC)c1OC [Compound E-6a, 4-((Hydroxyimino)(3,4,5-trimethoxyphenyl)methyl)-N,N,N-trimethylbenzenaminium iodide] |  |  |  |  |  | > 1000 nM
